Source: patent US12649723B2, “Carbonohydrazonoyl dicyanide compounds comprising 2 or more aryl or heteroaryl connected via linker and use thereof” (KOREA INSTITUTE OF SCIENCE AND TECHNOLOGY, priority 2020, dated 2026)

Key:
Tau-BiFC cells = assay: Cell viability (cytotoxicity) in tau-BiFC cells, count of stained nuclei; assay type: cell-based; conditions: compound 10 μM; Forskolin-only group = 100% cell viability
Method: (§1) In order to select novel tau protein aggregation-inhibiting substances, tau-BiFC cell model, in which formation of tau oligomers in living cells is easily observed, was used. Tau-BiFC cells were aliquoted into a 384-well plate. On the next day, the cells were treated with each of the compounds prepared according to Examples 1 to 175 at concentrations of 1 μM, 3 μM, and 10 μM, together with Forskolin (at a treatment concentration of 30 μM), which is a compound inducing tau protein aggregation by activating tau […] PKA. After 48 hours, nuclei in the cells were stained using Hoechst (at a treatment concentration of 2 μg/mL), and BiFC fluorescence intensity was automatically measured using Operetta (PerkinElmer) to count stained nuclei in each well out of the entire well plate. The group treated only with Forskolin, which induces tau protein aggregation, was set to a reference point of a 100% tau protein-aggregated state, and the effects of the compounds were confirmed using the equation “BiFC fluorescence intensity due to compound synthesized according to embodiment of present invention/(fluorescence intensity of control group treated only with Forskolin inducing tau protein aggregation−fluorescence intensity of untreated control group)×100”. Furthermore, the degree of cytotoxicity induced by the newly synthesized compound was also measured based on the 100% cell viability of the group treated only with Forskolin as a reference, and the cytotoxicity value of each compound was calculated using the equation “(number of stained nuclei in group treated with compound/number of stained nuclei in group treated with Forskolin)×100”. Based on the treatment results, substances inhibiting intracellular tau protein aggregation were selected from a series of candidate groups showing a tau protein aggregation inhibition rate of 70% or more and cell viability of 100% at a compound treatment concentration of 10 μM or more.
(§2) In order to evaluate dose-dependent tau protein aggregation inhibition effects of the compounds selected according to Experimental Example 1 on tau protein aggregation, tau-BiFC cells were treated with the selected compounds at concentrations of 0.03 μM, […], 0.3 μM, 1 μM, 3 μM, 10 μM, and 30 μM, respectively, together with Forskolin (at a treatment concentration of 30 μM), which is a tau protein aggregation inducing substance. After 48 hours, tau protein aggregation reaction and degrees of cytotoxicity were analyzed by observing images of the cells. IC50 and toxicity of the compounds were analyzed by way of nonlinear regression analysis of prism software (Graph Pad).

tau protein = biological target: T1, tau protein (Homo sapiens, UniProt P10636); assay: Tau-BiFC cell model: inhibition of tau protein aggregation; assay type: cell-based; conditions: for remaining activity at 10 µM: 48 h, compound 10 μM, BiFC fluorescence, Forskolin-only group = 100% tau protein-aggregated state, read-out: Response (% @10 μM); for IC50: Tau BiFC in cells, with Forskolin 30 μM, 48 hours
T1 construct: fused on or other part: Split fluorescent-protein halves for BiFC are fused to tau; In the published tau-BiFC line these are Venus VN173 and VC155
Method: as §1, §2

T1 sequence (P10636 2-441 isoform P10636-8 limits assumed): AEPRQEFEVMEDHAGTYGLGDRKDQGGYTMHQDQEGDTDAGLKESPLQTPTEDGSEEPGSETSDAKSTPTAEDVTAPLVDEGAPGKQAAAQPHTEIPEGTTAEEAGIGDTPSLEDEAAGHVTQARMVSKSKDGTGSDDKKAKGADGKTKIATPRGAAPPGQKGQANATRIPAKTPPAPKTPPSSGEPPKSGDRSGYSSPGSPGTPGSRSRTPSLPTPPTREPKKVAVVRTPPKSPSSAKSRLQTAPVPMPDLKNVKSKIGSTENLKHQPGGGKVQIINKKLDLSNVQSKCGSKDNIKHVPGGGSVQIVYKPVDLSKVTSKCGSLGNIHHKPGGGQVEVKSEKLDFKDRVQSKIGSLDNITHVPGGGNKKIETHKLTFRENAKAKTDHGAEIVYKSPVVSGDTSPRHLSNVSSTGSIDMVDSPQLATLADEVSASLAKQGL

Compound | Cell viability (% @10 μM) (Tau-BiFC cells) [%] | remaining activity at 10 µM (tau protein) [%] | IC50 (tau protein) [nM]
Cc1cnc(C(=O)Nc2ccc(NN=C(C#N)C#N)cc2)cn1 [Compound 2, (4-(5-methylpyrazine-2-carboxamido)phenyl)carbonohydrazonoyl dicyanide] | 71.5 | 0 | 1400
Cc1cnc(C(=O)Nc2ccc(NN=C(C#N)C#N)c(Cl)c2)cn1 [Compound 5, (2-chloro-4-(5-methylpyrazine-2-carboxamido)phenyl)carbonohydrazonoyl dicyanide] | 61.2 | 14.5 | –
Cc1cnc(C(=O)Nc2ccc(NN=C(C#N)C#N)cc2F)cn1 [Compound 7, (3-fluoro-4-(5-methylpyrazine-2-carboxamido)phenyl)carbonohydrazonoyl dicyanide] | 30.6 | 0 | –
Cc1cnc(C(=O)Nc2ccc(NN=C(C#N)C#N)cc2C)cn1 [Compound 8, (3-methyl-4-(5-methylpyrazine-2-carboxamido)phenyl)carbonohydrazonoyl dicyanide] | 88 | 0 | 40
COc1cc(NN=C(C#N)C#N)ccc1NC(=O)c1cnc(C)cn1 [Compound 10, (3-methoxy-4-(5-methylpyrazine-2-carboxamido)phenyl)carbonohydrazonoyl dicyanide] | 21.7 | 0 | –
Cc1cnc(C(=O)Nc2ccc(NN=C(C#N)C#N)cc2Cl)cn1 [Compound 11, (3-chloro-4-(5-methylpyrazine-2-carboxamido)phenyl)carbonohydrazonoyl dicyanide] | 82.5 | 0 | 110
Cc1cnc(C(=O)Nc2ncc(NN=C(C#N)C#N)cc2C)cn1 [Compound 12, (5-methyl-6-(5-methylpyrazine-2-carboxamido)pyridin-3-yl)carbonohydrazonoyl dicyanide] | 122.1 | 17.9 | 640
Cc1cnc(C(=O)Nc2cc(C)c(NN=C(C#N)C#N)cn2)cn1 [Compound 13, (4-methyl-6-(5-methylpyrazine-2-carboxamido)pyridin-3-yl)carbonohydrazonoyl dicyanide] | 110 | 30 | 550
Cc1cnc(C(=O)Nc2ccc(NN=C(C#N)C#N)nc2)cn1 [Compound 14, (5-(5-methylpyrazine-2-carboxamido)pyridin-2-yl)carbonohydrazonoyl dicyanide] | 102 | 147 | –
N#CC(C#N)=NNc1ccc(NC(=O)c2ccccc2)nc1 [Compound 15, (6-benzamidopyridin-3-yl)carbonohydrazonoyl dicyanide] | 79.9 | 0 | 90
N#CC(C#N)=NNc1ccc(NC(=O)c2ccccc2F)nc1 [Compound 17, (6-(2-fluorobenzamido)pyridin-3-yl)carbonohydrazonoyl dicyanide] | 102.7 | 0 | 310
N#CC(C#N)=NNc1ccc(NC(=O)c2cccc(F)c2)nc1 [Compound 18, (6-(3-fluorobenzamido)pyridin-3-yl)carbonohydrazonoyl dicyanide] | 113 | 0 | 660
Cc1cc(C(=O)Nc2ccc(NN=C(C#N)C#N)cn2)ccc1F [Compound 21, (6-(4-fluoro-3-methylbenzamido)pyridin-3-yl)carbonohydrazonoyl dicyanide] | 104.3 | 0 | 750
Cc1ccc(C(=O)Nc2ccc(NN=C(C#N)C#N)cn2)cc1F [Compound 22, (6-(3-fluoro-4-methylbenzamido)pyridin-3-yl)carbonohydrazonoyl dicyanide] | 105.8 | 0 | 320
Cc1cccc(C(=O)Nc2ccc(NN=C(C#N)C#N)cn2)c1 [Compound 24, (6-(3-methylbenzamido)pyridin-3-yl)carbonohydrazonoyl dicyanide] | 103.9 | 0 | < 300
Cc1ccccc1C(=O)Nc1ccc(NN=C(C#N)C#N)cn1 [Compound 25, (6-(2-methylbenzamido)pyridin-3-yl)carbonohydrazonoyl dicyanide] | 122.4 | 0 | 390
N#CC(C#N)=NNc1ccc(NC(=O)c2ccccc2C(F)(F)F)nc1 [Compound 28, (6-(2-(trifluoromethyl)benzamido)pyridin-3-yl)carbonohydrazonoyl dicyanide] | 125.8 | 0 | 540
N#CC(C#N)=NNc1ccc(NC(=O)c2ncccn2)nc1 [Compound 29, (6-(pyrimidine-2-carboxamido)pyridin-3-yl)carbonohydrazonoyl dicyanide] | 139.9 | 0 | 1040
N#CC(C#N)=NNc1ccc(NC(=O)c2cnc3ccccc3n2)nc1 [Compound 32, (6-(quinoxaline-2-carboxamido)pyridin-3-yl)carbonohydrazonoyl dicyanide] | 145.3 | 0 | 310
Cc1cnc(C(=O)Nc2nc3ncc(NN=C(C#N)C#N)cc3s2)cn1 [Compound 33, (2-(5-methylpyrazine-2-carboxamido)thiazolo[4,5-b]pyridin-6-yl)carbonohydrazonoyl dicyanide] | 125 | 63.9 | –
Cc1ccc(NC(=O)c2ccc(NN=C(C#N)C#N)cn2)cc1 [Compound 34, (6-(p-tolylcarbamoyl)pyridin-3-yl)carbonohydrazonoyl dicyanide] | 88.1 | 76 | 9000
COc1ccc(NC(=O)c2ccc(NN=C(C#N)C#N)cn2)cc1 [Compound 35, (6-(4-methoxyphenylcarbamoyl)pyridin-3-yl)carbonohydrazonoyl dicyanide] | 97.9 | 34.2 | –
Cc1cnc(NC(=O)c2ccc(NN=C(C#N)C#N)cn2)cn1 [Compound 36, (6-(5-methylpyrazin-2-ylcarbamoyl)pyridin-3-yl)carbonohydrazonoyl dicyanide] | 86.9 | 35.9 | –
N#CC(C#N)=NNc1ccc(C(=O)Nc2ccc(Cl)cc2)nc1 [Compound 37, (6-(4-chlorophenylcarbamoyl)pyridin-3-yl)carbonohydrazonoyl dicyanide] | 117.8 | 62.7 | –
Cc1cncc(NC(=O)c2ccc(NN=C(C#N)C#N)cn2)c1 [Compound 39, (6-(5-methylpyridin-3-ylcarbamoyl)pyridin-3-yl)carbonohydrazonoyl dicyanide] | 131.1 | 0 | 630
N#CC(C#N)=NNc1ccc(C(=O)Nc2cccnc2)nc1 [Compound 40, (6-(pyridin-3-ylcarbamoyl)pyridin-3-yl)carbonohydrazonoyl dicyanide] | 130.7 | 7.9 | –
